Assay results reported in PubChem BioAssay AID1033 (Sanford-Burnham Center for Chemical Genomics, 2008).
Calls of active or inactive are those of the source. How the calls were made is not given here.

Molecular target: Chaperone protein DnaK (Escherichia coli (strain K12)) (UniProt P0A6Y8)
Assay: binders of DnaK substrate-binding domain, biophysical, NMR, chaperone (AID 1033)
Conditions: Purified DnaK SBD, NMR ligand binding

Chain of Chaperone protein DnaK (Escherichia coli (strain K12)) (P0A6Y8 whole entry, looked up, the tested form may be a part): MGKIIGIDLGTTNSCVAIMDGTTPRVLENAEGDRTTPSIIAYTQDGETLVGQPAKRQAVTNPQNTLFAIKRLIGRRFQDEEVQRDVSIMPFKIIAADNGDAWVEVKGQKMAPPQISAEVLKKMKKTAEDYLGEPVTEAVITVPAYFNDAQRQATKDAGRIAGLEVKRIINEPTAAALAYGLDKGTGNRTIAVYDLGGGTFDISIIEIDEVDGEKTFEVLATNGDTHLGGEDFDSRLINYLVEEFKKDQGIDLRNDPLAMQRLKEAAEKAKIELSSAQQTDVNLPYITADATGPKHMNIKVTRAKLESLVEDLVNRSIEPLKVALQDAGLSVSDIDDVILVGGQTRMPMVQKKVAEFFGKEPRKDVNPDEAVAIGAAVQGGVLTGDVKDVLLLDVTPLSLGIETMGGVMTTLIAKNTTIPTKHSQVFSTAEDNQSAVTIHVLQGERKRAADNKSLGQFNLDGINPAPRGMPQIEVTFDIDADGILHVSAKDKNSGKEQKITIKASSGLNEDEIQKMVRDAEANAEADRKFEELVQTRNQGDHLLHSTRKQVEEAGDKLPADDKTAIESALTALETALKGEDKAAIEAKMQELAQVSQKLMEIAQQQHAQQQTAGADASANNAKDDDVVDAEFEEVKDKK

Row | SMILES | Kd
1 | Cc1n[nH]c(=S)n(/N=C/c2cccs2)c1=O | > 4 mM (inactive)
2 | Cc1cccc(C(C)C)c1NC(=O)c1cccnc1 | > 4 mM (inactive)
3 | NC(=O)c1ccc(C(N)=O)c(-c2ccccc2)c1 | > 4 mM (inactive)
4 | Cc1nc(-c2cc(CO)no2)cs1 | > 4 mM (inactive)
5 | CCOC(=O)c1c(C)nc2c(C#N)cnn2c1C | > 4 mM (inactive)
6 | CC(=O)O[C@H]1CC[C@@]2(C)C(C[C@@H](OC(C)=O)[C@@]3(C)C4=CC(=O)O[C@@H](c5ccoc5)[C@]4(C)CCC23)C1(C)C (stereo partly specified) | > 4 mM (inactive)
7 | Nc1ccc2[nH]ncc2c1 | > 4 mM (inactive)
8 | CC(C)c1ccc(NC(=O)C(N)=O)cc1 | > 4 mM (inactive)
9 | CCN(CC)c1nc2n(c(=O)n1)CCO2 | > 4 mM (inactive)
10 | CS(C)=C1C(=O)NC(=O)N(Cc2ccc(F)cc2)C1=O | > 4 mM (inactive)
11 | O=C(O)c1cccc2c1OCCO2 | > 4 mM (inactive)
12 | Cc1c(C(=O)O)cnn1-c1ccccc1 | > 4 mM (inactive)
13 | COc1ccc(S(N)(=O)=O)cc1 | > 4 mM (inactive)
14 | O=C(Cc1cccs1)Nc1ccccn1 | > 4 mM (inactive)
15 | CCN1C(=O)c2cccc3c(S(N)(=O)=O)ccc1c23 | > 4 mM (inactive)
16 | CSc1ncc(CO)n1Cc1ccccc1 | > 4 mM (inactive)
17 | CSc1nc(-c2ccco2)nn1S(C)(=O)=O | > 4 mM (inactive)
18 | CC(C)CCCC(C)C1CCC2C3C[C@@H](O)[C@@]4(O)C[C@@H](O)CC[C@]4(C)C3CC[C@]12C (stereo partly specified) | > 4 mM (inactive)
19 | CCOC(=O)CC1Sc2ccccc2NC1=O (stereo unspecified) | > 4 mM (inactive)
20 | Nc1ccc(S(=O)(=O)N2CCCCC2)cc1 | > 4 mM (inactive)
21 | CCOc1ccc(C)cc1S(=O)(=O)n1ccc(C)n1 | > 4 mM (inactive)
22 | O=C1N/C(=N\c2ccccn2)SC1Cc1ccccc1 (stereo unspecified) | > 4 mM (inactive)
23 | O=C1COc2ccccc2C(=O)N1 | > 4 mM (inactive)
24 | Cc1cc(C)n(-c2ccc(Cl)nn2)n1 | > 4 mM (inactive)
25 | O=C(O)C1CSC(c2cc3ccccc3nc2Cl)N1 (stereo unspecified) | > 4 mM (inactive)

Row | SMILES | Kd
26 | O=c1c(O)c(-c2ccc(O)cc2O)oc2cc(O)cc(O)c12 | > 4 mM (inactive)
27 | CC1(C)CC(NC(=O)/C=C/C(=O)O)CC(C)(C)N1 | > 4 mM (inactive)
28 | CC[C@]12CCCN3CCc4c(n(c5ccccc45)[C@](O)(C(=O)OC)C1)[C@@H]32 | > 4 mM (inactive)
29 | CC(=O)N1CC2(C)CN(C(C)=O)CC(C)(C1)C2O (stereo unspecified) | > 4 mM (inactive)
30 | C[n+]1ccn(C/C(N)=N/O)c1 | > 4 mM (inactive)
31 | O=C(O)C1CSC(c2cccnc2)N1 (stereo unspecified) | > 4 mM (inactive)
32 | COc1ccc(-c2ccc(OC)cc2C(=O)O)cc1 | > 4 mM (inactive)
33 | CSc1cc(C)[nH]c(=O)n1 | > 4 mM (inactive)
34 | O=C(Nc1cccnc1)Nc1ccc2c(c1)OCO2 | > 4 mM (inactive)
35 | O=c1[nH]c2sc3c(c2c2ncnn12)CCCC3 | > 4 mM (inactive)
36 | COCc1nc(-c2cc(Br)ccc2OC)no1 | > 4 mM (inactive)
37 | C=C(C)[C@@H]1[C@H]2OC(=O)[C@@H]1[C@]1(O)C[C@H]3O[C@]34C(=O)O[C@H]2[C@]14C | > 4 mM (inactive)
38 | CC(=O)Oc1ccc(-c2cc(=O)c3c(OC(C)=O)cc(OC(C)=O)cc3o2)cc1 | > 4 mM (inactive)
39 | Cc1cc(O)c2c(c1O)C(=O)c1c(O)cc(C)c(O)c1C2=O | > 4 mM (inactive)
40 | Nc1ncnc2c1ncn2C1O[C@H](COP(=O)(O)O)[C@@H](O)[C@H]1O (stereo partly specified) | > 4 mM (inactive)
41 | CC(=O)c1cc2c(s1)SCC(=O)N2 | > 4 mM (inactive)
42 | N#C/C(=C\c1ccc[nH]1)S(=O)(=O)c1ccccc1 | > 4 mM (inactive)
43 | COC(=O)c1sccc1S(=O)(=O)N1CCCC1 | > 4 mM (inactive)
44 | Cc1cc(=O)n2[nH]c(COc3ccccc3)nc2n1 | > 4 mM (inactive)
45 | CC(=O)Oc1ccccc1N1C(=O)C=CC1=O | > 4 mM (inactive)
46 | O=C1CSC(c2ccc3c(c2)OCO3)N1 (stereo unspecified) | > 4 mM (inactive)
47 | CC(C)NC(=O)c1nc2ccccc2s1 | > 4 mM (inactive)
48 | c1ccc(NCc2nc(-c3ccccc3)no2)cc1 | > 4 mM (inactive)
49 | Nc1ccc2sccc2c1 | > 4 mM (inactive)
50 | CSc1nc(NC(C)C)nc(N2CCOCC2)n1 | > 4 mM (inactive)

Row | SMILES | Kd
51 | COc1ccc2c(c1)OC/C(=C\c1ccc(OC)c(O)c1)C2=O | > 4 mM (inactive)
52 | COc1cc2c(cc1O)[C@@H](Cc1ccc(O)cc1)[N+](C)(C)CC2 | > 4 mM (inactive)
53 | O=C(O)C1CC(=O)N(CCc2ccc(Cl)cc2)C1 (stereo unspecified) | > 4 mM (inactive)
54 | O=C1CSC(=O)N1CN1CCOCC1 | > 4 mM (inactive)
55 | O=C1CC(=O)N2N=C(c3ccccc3)SC2=N1 | > 4 mM (inactive)
56 | CNC(=O)CC1Sc2ccccc2NC1=O (stereo unspecified) | > 4 mM (inactive)
57 | CC(=O)Nc1nc2c(s1)C(=O)NCCC2 | > 4 mM (inactive)
58 | Nc1c(/C=C2\C=Nc3ccccc32)c(=O)nc2scnn12 | > 4 mM (inactive)
59 | C/C=C(\C)c1nnc(NC(=O)c2ccco2)s1 | > 4 mM (inactive)
60 | O=C(NC1=NCCS1)c1ccc([N+](=O)[O-])cc1Cl | > 4 mM (inactive)
61 | NC(=O)C1CCN(C(=S)c2ccccc2)CC1 | > 4 mM (inactive)
62 | Cc1c(CO)cnn1-c1ccccc1 | > 4 mM (inactive)
63 | CC(=O)Nc1nnc(-c2ccccn2)o1 | > 4 mM (inactive)
64 | Cn1cnnc1SCC(=O)Nc1ccccc1 | > 4 mM (inactive)
65 | CN1CCN(Cc2cccnc2)CC1 | > 4 mM (inactive)
66 | O=C(Nc1ccc2[nH]ccc2c1)c1cccs1 | < 0.2 mM
67 | CCn1nnc(NC(=O)c2ccccc2Br)n1 | > 4 mM (inactive)
68 | O=C(O)c1ccc(-c2cccs2)s1 | > 4 mM (inactive)
69 | NC(CCC(=O)Nc1ccc([N+](=O)[O-])cc1)C(=O)O (stereo unspecified) | > 4 mM (inactive)
70 | COc1ccc(N2C(=O)CCC2=O)c(OC)c1 | > 4 mM (inactive)
71 | COC(=O)c1cccc2cc[nH]c12 | > 4 mM (inactive)
72 | O=C(Nc1ccccc1)c1cccc(N2C(=O)CCC2=O)c1 | > 4 mM (inactive)
73 | O=S1(=O)CCC2CC=CCC21 (stereo unspecified) | > 4 mM (inactive)
74 | Cc1cc(C)n(S(=O)(=O)c2cc(C)c(C)cc2C)n1 | > 4 mM (inactive)
75 | O=C(c1ccc(N2CCNCC2)cc1)c1cccnc1 | > 4 mM (inactive)

Row | SMILES | Kd
76 | O=C(Nc1ccccn1)C(=O)N1CCCC1 | > 4 mM (inactive)
77 | COc1ccc(-c2coc3cc(OC)cc(OC)c3c2=O)cc1 | > 4 mM (inactive)
78 | CC(=O)NC(c1ccccc1)c1cccnc1 (stereo unspecified) | > 4 mM (inactive)
79 | COCC(=O)N1CCCc2ccccc21 | > 4 mM (inactive)
80 | Cn1cnc2c1c(=O)[nH]c(=O)n2C | > 4 mM (inactive)
81 | C[C@@H]1CC[C@@]23CCC4(C)[C@@](C=CC5[C@@]6(C)CCC(=O)C(C)(C)C6CC[C@]54C)(OC2=O)C3[C@H]1C (stereo partly specified) | > 4 mM (inactive)
82 | COC(=O)c1ccc(N2CCOCC2)nc1 | > 4 mM (inactive)
83 | Cc1nnc(-n2cnc3ccccc32)c2ccccc12 | > 4 mM (inactive)
84 | C=CCN1CC[C@]23c4c5ccc(O)c4OC2C(=O)CC[C@@]3(O)[C@H]1C5 (stereo partly specified) | > 4 mM (inactive)
85 | CCOC(=O)N1CCCC1c1cccnc1 (stereo unspecified) | > 4 mM (inactive)
86 | CC(=O)NC(=S)Nc1ccccc1C(N)=O | > 4 mM (inactive)
87 | NCc1ccc(-n2cccn2)cc1 | > 4 mM (inactive)
88 | NC(=O)c1ccc2c(c1)OCO2 | > 4 mM (inactive)
89 | CN1C(=O)CC(=O)N(C)c2ccccc21 | > 4 mM (inactive)
90 | NC(=O)c1cccc(N2C(=O)C=CC2=O)c1 | > 4 mM (inactive)
91 | CCn1c(=O)cc(N2CCC3(CC2)OCCO3)[nH]c1=O | > 4 mM (inactive)
92 | CCOC(=O)c1sc(SC)c2c1CCCC2O (stereo unspecified) | > 4 mM (inactive)
93 | CC(=O)c1cc(C(N)=O)c(=S)[nH]c1C | > 4 mM (inactive)
94 | Cn1nc(-c2cccs2)cc1N | > 4 mM (inactive)
95 | CC(=O)Nc1ccc2c(c1)CCC2=O | > 4 mM (inactive)
96 | CCc1noc(C)c1C(=O)N1CCCC1 | > 4 mM (inactive)
97 | COC(=O)c1cc(-c2c(C)nn(-c3ccccc3)c2C)n[nH]1 | > 4 mM (inactive)
98 | CC(=O)O[C@@H]1c2c(ccc3ccc(=O)oc23)OC(C)(C)[C@@H]1OC(=O)CC(C)C | > 4 mM (inactive)
99 | O=C(O)CCN1CCOCC1 | > 4 mM (inactive)
100 | Cc1sc2nc(C)n(NC(N)=O)c(=O)c2c1C | > 4 mM (inactive)

Row | SMILES | Kd
101 | S=C(NCc1cccnc1)NC1CC1 | > 4 mM (inactive)
102 | CCCOn1nnnc1-c1ccccc1 | > 4 mM (inactive)
103 | Cc1cc(=O)[nH]c(NCC(=O)O)n1 | > 4 mM (inactive)
104 | CNC(=O)C1CC(=O)N(c2ccc(O)cc2)C1 (stereo unspecified) | > 4 mM (inactive)
105 | NC1=C([N+](=O)[O-])C(=O)c2ccccc21 | > 4 mM (inactive)
106 | O=C(O)C1CSC(c2ccco2)N1 (stereo unspecified) | > 4 mM (inactive)
107 | CC(C)c1c(O)ccc2c1CCC1C(C)(C)CCC[C@]21C (stereo partly specified) | > 4 mM (inactive)
108 | O=C1CN(C(=O)c2ccccc2)c2ccccc2N1 | > 4 mM (inactive)
109 | Oc1cccc2[nH]ccc12 | > 4 mM (inactive)
110 | CNC(=O)c1ccccc1N | > 4 mM (inactive)
111 | COc1cc(-c2coc3cc(OC)c(OC)c(OC)c3c2=O)cc(OC)c1OC | > 4 mM (inactive)
112 | COc1cc2c(cc1OC)[C@@H]1C(=O)c3ccc4oc(C(C)C)cc4c3O[C@@H]1CO2 | > 4 mM (inactive)
113 | CSc1ccn(CCC(=O)O)c(=O)n1 | > 4 mM (inactive)
114 | Cc1ccccc1NC(=O)CC1SC(N)=NC1=O (stereo unspecified) | > 4 mM (inactive)
115 | Cc1cc(C)n2c(SCc3c(C)noc3C)nnc2n1 | > 4 mM (inactive)
116 | S=c1[nH]ncn1-c1ccccc1 | > 4 mM (inactive)
117 | Cc1cc(C)cc(OC(=O)N2CCOCC2)c1 | > 4 mM (inactive)
118 | Cc1ccc(-c2nnn(CC(=O)O)n2)cc1 | > 4 mM (inactive)
119 | NNC(=O)c1ccccc1-n1cccc1 | > 4 mM (inactive)
120 | Cc1nc(N)sc1C(=O)Nc1nccs1 | > 4 mM (inactive)
121 | O=C(CC1NCCNC1=O)Nc1ccccc1 (stereo unspecified) | > 4 mM (inactive)
